From patent publication EP3046573B1, “AMYLIN ANALOGUES” (Zealand Pharma A/S, priority 2013, dated 2015)
Like-named read-outs stand apart in the source and are kept apart here. Numbered stars: 1 amine (or outer) side, 2 acyl side, 3 side chain; on linkers, the order of the positions; unused ones are H or OH. Bridge positions count the residues as written; N and C are the ends. Square brackets hold non-standard residues; d marks the D form. Peptide text beside a SMILES is read from it. * marks the point of attachment. C20 diacid = O=C(O)CCCCCCCCCCCCCCCCCCC(=O)*; γGlu = O=C(O)[C@H](CCC(=O)[*:2])N[*:1]; NMeI = CC[C@H](C)[C@H](NC)C(=O)O; Sar = CNCC(=O)O

Assays:
[1] = system: Sprague Dawley (SD) rats; assay: Acute food intake and body weight in normal Sprague Dawley rats; type: in vivo; settings: vehicle-corrected, dose 30 nmol/kg sc, once; for Body weight loss (%) after 96 hours: mean ± SEM, n = 8
Method: Sprague Dawley (SD) rats were obtained from Taconic A/S, Denmark. The animals arrived at least 7 days before the study start to allow acclimatization to experimental conditions. From arrival and throughout the study, the rats were housed in groups of 2 (n = 2) in a light-, temperature- and humidity-controlled room (reversed 12/12 h light/dark cycle: lights turned off during day-time and on during night-time; temperature 20-22°C; relative humidity 50-80%). Animals had access ad libitum to food (Altromin™ 1324, Brogaarden A/S, Gentofte, Denmark) and water (domestic quality tap water with citric acid added to pH ∼ 3.6) during the entire study. Stratification of rats was based on body weight (BW) on a cage-by-cage basis; mean BWs per cage were used as the basis for pairing four cages together in a group (n = 8 per group). A vehicle group and positive control group were included in each set of tests. Rats were dosed subcutaneously (sc) once in the morning immediately before turning off the lights, using a body weight-corrected dose of peptide (30 nmol/kg). Dosing volume was 5 ml/kg. Food intake was recorded manually at t = 0 (pre-dose) and at t = 4, 7, 10, 24, 48, 72 and 96 hours after dosing. Body weight was measured daily.
Statistical analyses on body weight were performed using GraphPad™ Prism version 5. The measured parameters were compared using unpaired t tests. Differences were considered statistically significant at p < 0.05. Data are means ± SEM; n =8.

[2] = target: T1, human calcitonin receptor (hCTR2) (Homo sapiens, UniProt P30988); assay: hCTR2 assay: induction of cAMP (AlphaScreen cAMP Assay kit) in COS7 cells expressing hCTR2; type: cell-based
T1 construct: expressed in transfected cells
T1 sequence (P30988 25-474): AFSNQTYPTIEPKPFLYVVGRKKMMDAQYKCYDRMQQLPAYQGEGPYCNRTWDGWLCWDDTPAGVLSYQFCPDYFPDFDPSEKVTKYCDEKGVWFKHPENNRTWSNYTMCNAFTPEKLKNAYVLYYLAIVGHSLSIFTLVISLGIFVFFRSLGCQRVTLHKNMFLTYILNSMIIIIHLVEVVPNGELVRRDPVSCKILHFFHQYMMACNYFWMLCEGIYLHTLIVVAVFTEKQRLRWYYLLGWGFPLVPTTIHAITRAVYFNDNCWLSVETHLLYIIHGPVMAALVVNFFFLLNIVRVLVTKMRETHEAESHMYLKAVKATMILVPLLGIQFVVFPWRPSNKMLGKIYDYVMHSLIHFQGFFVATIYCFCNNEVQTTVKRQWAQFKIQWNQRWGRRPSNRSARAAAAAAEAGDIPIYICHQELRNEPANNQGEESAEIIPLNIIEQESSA
Outline: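 Peptide-induced cAMP in hCTR2-expressing COS7 cells, 15 min at 37° C with phosphodiesterase inhibitor IBMX (100 µM), detected by AlphaScreen; potency from 4PL curves.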

[3] = Solubility assessment (turbidity absorbance at 325 nm); type: physicochemical; settings: stock 2 mg/ml diluted 1:1, ambient temperature (typically 25°C), n=1; for Solubility, Acetate buffer pH 4: 100 mM acetate buffer pH 4.0; for Solubility, Acetate buffer pH 5: 100 mM acetate buffer pH 5.0; for Solubility, Histidine buffer pH 6: 100 mM histidine buffer pH 6.0; for Solubility, Histidine buffer pH 7: 100 mM histidine buffer pH 7.0; for Solubility, Phosphate buffer pH 6: 100 mM phosphate buffer pH 6.0; for Solubility, Phosphate buffer pH 7: 100 mM phosphate buffer pH 7.0; for Solubility, Phosphate buffer pH 7.5: 100 mM phosphate buffer pH7.5
Outline: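 Turbidimetric screen across pH 4.0–7.5 in 100 mM acetate, histidine and phosphate buffers. A 2 mg/ml peptide stock (pH 2.5) was diluted 1:1 into each, then A325 measured at ambient temperature; values ≤ 0.02 AU denoted solubility of 1 mg/ml or more.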

| EC50 ([2]; cAMP induction in COS7 cells expressing hCTR2, average of a minimum of 3 determinations, read-out: hCTR2 EC50) | SMILES | Food intake inhibition (%) after 48 hours [1] | Body weight loss (%) after 96 hours [1] | EC50 [2] | Solubility, Acetate buffer pH 4 [3] | Solubility, Acetate buffer pH 5 [3] | Solubility, Histidine buffer pH 6 [3] | Solubility, Histidine buffer pH 7 [3] | Solubility, Phosphate buffer pH 6 [3] | Solubility, Phosphate buffer pH 7 [3] | Solubility, Phosphate buffer pH 7.5 [3] |
| --- | --- | --- | --- | --- | --- | --- | --- | --- | --- | --- | --- |
| – | CC[C@H](C)[C@@H](C(=O)N[C@@H](CC(C)C)C(=O)N[C@@H](CO)C(=O)N[C@@H](CO)C(=O)N[C@H](C(=O)N[C@@H](CC(N)=O)C(=O)N[C@H](C(=O)NCC(=O)N[C@@H](CO)C(=O)N[C@@H](CC(N)=O)C(=O)N[C@H](C(=O)N1CCC[C@H]1C(N)=O)[C@@H](C)O)C(C)C)[C@@H](C)O)N(C)C(=O)[C@H](C)NC(=O)CN(C)C(=O)[C@H](Cc1ccccc1)NC(=O)[C@H](CC(N)=O)NC(=O)[C@H](CC(N)=O)NC(=O)[C@H](CO)NC(=O)[C@H](CO)NC(=O)[C@H](CCCNC(=N)N)NC(=O)[C@H](Cc1c[nH]cn1)NC(=O)[C@H](CC(C)C)NC(=O)[C@H](Cc1ccccc1)NC(=O)[C@H](CCC(=O)O)NC(=O)[C@H](C)NC(=O)[C@H](CC(C)C)NC(=O)[C@H](CCCNC(=N)N)NC(=O)[C@H](CCC(N)=O)NC(=O)[C@@H](NC(=O)[C@H](C)NC(=O)[C@@H]1CSSC[C@H](NC(=O)[C@H](CCCNC(=N)N)NC(=O)CC[C@H](NC(=O)CCCCCCCCCCCCCCCCCCC(=O)O)C(=O)O)C(=O)N[C@@H](CC(N)=O)C(=O)N[C@@H]([C@@H](C)O)C(=O)N[C@@H](C)C(=O)N[C@@H]([C@@H](C)O)C(=O)N1)[C@@H](C)O [Compound 18, [19CD]-isoGlu-RC()NTATC()ATQRLAEFLHRSSNNF-Gly(Me)-A-Ile(Me)-LSSTNVGSNTP-NH2] ({C20 diacid-γGlu}-RCNTATCATQRLAEFLHRSSNNF[Sar]A[NMeI]LSSTNVGSNTP-NH2; disulfide 2-7) | 98% | 13 ± 0.8% | 0.06 nM | SS (SS indicates solubility ≥ 1mg/ml) | SS (SS indicates solubility ≥ 1mg/ml) | SS (SS indicates solubility ≥ 1mg/ml) | SS (SS indicates solubility ≥ 1mg/ml) | SS (SS indicates solubility ≥ 1mg/ml) | SS (SS indicates solubility ≥ 1mg/ml) | SS (SS indicates solubility ≥ 1mg/ml) |
| – | CC[C@H](C)[C@@H](C(=O)N[C@@H](CC(C)C)C(=O)N[C@H](CO)C(=O)N[C@@H](CO)C(=O)N[C@H](C(=O)N[C@@H](CC(N)=O)C(=O)N[C@H](C(=O)NCC(=O)N[C@@H](CO)C(=O)N[C@@H](CC(N)=O)C(=O)N[C@H](C(=O)N1CCC[C@H]1C(N)=O)[C@@H](C)O)C(C)C)[C@@H](C)O)N(C)C(=O)[C@H](C)NC(=O)CN(C)C(=O)[C@@H](Cc1ccccc1)NC(=O)[C@H](CC(N)=O)NC(=O)[C@H](CC(N)=O)NC(=O)[C@H](CO)NC(=O)[C@H](CO)NC(=O)[C@H](CCCNC(=N)N)NC(=O)[C@H](Cc1c[nH]cn1)NC(=O)[C@H](CC(C)C)NC(=O)[C@H](Cc1ccccc1)NC(=O)[C@H](CCC(=O)O)NC(=O)[C@H](C)NC(=O)[C@H](CC(C)C)NC(=O)[C@H](CCCNC(=N)N)NC(=O)[C@H](CCC(N)=O)NC(=O)[C@@H](NC(=O)[C@H](C)NC(=O)[C@@H]1CSSC[C@H](NC(=O)[C@H](CCCCN)NC(=O)CC[C@H](NC(=O)CCCCCCCCCCCCCCCCCCC(=O)O)C(=O)O)C(=O)N[C@@H](CC(N)=O)C(=O)N[C@@H]([C@@H](C)O)C(=O)N[C@@H](C)C(=O)N[C@@H]([C@@H](C)O)C(=O)N1)[C@@H](C)O [Compound 72, [19CD]-isoGlu-KC()NTATC()ATQRLAEFLHRSSNN-DPhe-Gly(Me)-A-Ile(Me)-L-DSer-STNVGSNTP] ({C20 diacid-γGlu}-KCNTATCATQRLAEFLHRSSNN[dF][Sar]A[NMeI]L[dS]STNVGSNTP-NH2; disulfide 2-7) | 99% | 12 ± 1.2% | 0.071 nM | SS (SS indicates solubility ≥ 1mg/ml) | SS (SS indicates solubility ≥ 1mg/ml) | SS (SS indicates solubility ≥ 1mg/ml) | SS (SS indicates solubility ≥ 1mg/ml) | SS (SS indicates solubility ≥ 1mg/ml) | SS (SS indicates solubility ≥ 1mg/ml) | SS (SS indicates solubility ≥ 1mg/ml) |
| 0.072 nM | CC[C@H](C)[C@@H](C(=O)N[C@@H](CC(C)C)C(=O)N[C@@H](CO)C(=O)N[C@@H](CO)C(=O)N[C@H](C(=O)N[C@@H](CC(=O)O)C(=O)N[C@H](C(=O)NCC(=O)N[C@@H](CO)C(=O)N[C@@H](CC(=O)O)C(=O)N[C@H](C(=O)N1CCC[C@H]1C(N)=O)[C@@H](C)O)C(C)C)[C@@H](C)O)N(C)C(=O)[C@H](C)NC(=O)CN(C)C(=O)[C@H](Cc1ccccc1)NC(=O)[C@H](CO)NC(=O)[C@H](CO)NC(=O)[C@H](CO)NC(=O)[C@H](CO)NC(=O)[C@H](CCCNC(=N)N)NC(=O)[C@H](Cc1c[nH]cn1)NC(=O)[C@H](CC(C)C)NC(=O)[C@H](Cc1ccccc1)NC(=O)[C@H](CCC(=O)O)NC(=O)[C@H](C)NC(=O)[C@H](CC(C)C)NC(=O)[C@H](CCCNC(=N)N)NC(=O)[C@H](CCC(N)=O)NC(=O)[C@@H](NC(=O)[C@H](C)NC(=O)[C@@H]1CSSC[C@H](NC(=O)[C@H](CCCNC(=N)N)NC(=O)CC[C@H](NC(=O)CCCCCCCCCCCCCCCCCCC(=O)O)C(=O)O)C(=O)N[C@@H](CC(N)=O)C(=O)N[C@@H]([C@@H](C)O)C(=O)N[C@@H](C)C(=O)N[C@@H]([C@@H](C)O)C(=O)N1)[C@@H](C)O [Compound 73, [19CD]-isoGlu-RC()NTATC()ATQRLAEFLHRSSSSF-Gly(Me)-A-Ile(Me)-LSSTDVGSDTP-NH2] ({C20 diacid-γGlu}-RCNTATCATQRLAEFLHRSSSSF[Sar]A[NMeI]LSSTDVGSDTP-NH2; disulfide 2-7) | 93% | 11 ± 1.8% | – | SS (SS indicates solubility ≥ 1mg/ml) | II (II indicates solubility ≤ 1 mg/ml) | SS (SS indicates solubility ≥ 1mg/ml) | SS (SS indicates solubility ≥ 1mg/ml) | SS (SS indicates solubility ≥ 1mg/ml) | SS (SS indicates solubility ≥ 1mg/ml) | SS (SS indicates solubility ≥ 1mg/ml) |
